# Test results published in patent US20230085307A1, “PYRIDAZINONE COMPOUND AND HERBICIDE” (NISSAN CHEMICAL CORPORATION, priority 2019, published 2023).
# Tests used:
# blackgrass [1] = assay: Test Example 4: herbicidal effect by soil treatment (Table 19, symbol J); format: in vivo, blackgrass (Alopecurus myosuroides); conditions: AAH 320 g/ha
# Method in brief: (§1)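 Soil-surface application: an emulsion agent diluted with water to the predetermined dose is sprayed uniformly over seeds lying under roughly 1.5 cm of sterilized diluvial soil. Boxes stay in a greenhouse at 25° C. to 30° C. Three weeks later, each species is graded on previously defined criteria.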
# southern crabgrass [2] = assay: Test Example 4: herbicidal effect by soil treatment (Table 19, symbol F); format: in vivo, southern crabgrass (Digitaria ciliaris); conditions: AAH 320 g/ha
# Method in brief: as §1
# barnyard grass [3] = assay: Test Example 4: herbicidal effect by soil treatment (Table 19, symbol H); format: in vivo, barnyard grass (Echinochloa crus-galli); conditions: AAH 320 g/ha
# Method in brief: as §1
# barnyard grass [4] = assay: Test Example 5: herbicidal effect by foliage application, plastic box (Table 20, symbol H); format: in vivo, barnyard grass (Echinochloa crus-galli); conditions: foliage application, 320 g/ha, 3 weeks after application
# Method in brief: (§2)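 Sow seeds spot-wise in sterilized diluvial soil; cover with ~1.5 cm soil. Grow 14 days in greenhouse, 25° C. to 30° C. Spray foliage with emulsion diluted to predetermined amount. Rate effect after 3 weeks.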
# lambsquarters [5] = assay: Test Example 5: herbicidal effect by foliage application, plastic box (Table 20, symbol O); format: in vivo, lambsquarters (Chenopodium album); conditions: foliage application, 320 g/ha, 3 weeks after application
# Method in brief: as §2
# southern crabgrass [6] = assay: Test Example 5: herbicidal effect by foliage application, plastic box (Table 20, symbol F); format: in vivo, southern crabgrass (Digitaria ciliaris); conditions: foliage application, 320 g/ha, 3 weeks after application
# Method in brief: as §2
# windgrass [7] = assay: Test Example 4: herbicidal effect by soil treatment (Table 19, symbol L); format: in vivo, windgrass (Apera spica-venti); conditions: AAH 320 g/ha
# Method in brief: as §1
# green foxtail = assay: Test Example 5: herbicidal effect by foliage application, plastic box (Table 20, symbol G); format: in vivo, green foxtail (Setaria viridis); conditions: foliage application, 320 g/ha, 3 weeks after application
# Method in brief: as §2
# blackgrass [8] = assay: Test Example 5: herbicidal effect by foliage application, plastic box (Table 20, symbol J); format: in vivo, blackgrass (Alopecurus myosuroides); conditions: foliage application, 320 g/ha, 3 weeks after application
# Method in brief: as §2
# Italian ryegrass [9] = assay: Test Example 4: herbicidal effect by soil treatment (Table 19, symbol K); format: in vivo, Italian ryegrass (Lolium multiflorum); conditions: AAH 320 g/ha
# Method in brief: as §1
# barnyard grass [10] = assay: Test Example 3: herbicidal effect by foliage application, Wagner pot (Table 18, symbol H); format: in vivo, barnyard grass (Echinochloa crus-galli); conditions: 320 g/ha
# Method in brief: (§3)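 Plants were sown in alluvial soil held under 0.1–0.5 cm standing water and grown 14 days in a greenhouse at 25–30 °C. An emulsifiable formulation, water-diluted to the set dose, was then sprayed onto the foliage, and effects were scored three weeks later using previously defined criteria.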
# lambsquarters [11] = assay: Test Example 4: herbicidal effect by soil treatment (Table 19, symbol O); format: in vivo, lambsquarters (Chenopodium album); conditions: AAH 320 g/ha
# Method in brief: as §1
# Italian ryegrass [12] = assay: Test Example 5: herbicidal effect by foliage application, plastic box (Table 20, symbol K); format: in vivo, Italian ryegrass (Lolium multiflorum); conditions: foliage application, 320 g/ha, 3 weeks after application
# Method in brief: as §2
# wild oat [13] = assay: Test Example 5: herbicidal effect by foliage application, plastic box (Table 20, symbol I); format: in vivo, wild oat (Avena fatua); conditions: foliage application, 320 g/ha, 3 weeks after application
# Method in brief: as §2
# rice flat sedge = assay: Test Example 3: herbicidal effect by foliage application, Wagner pot (Table 18, symbol E); format: in vivo, rice flat sedge (Cyperus iria); conditions: 320 g/ha
# Method in brief: as §3
# velvetleaf [14] = assay: Test Example 4: herbicidal effect by soil treatment (Table 19, symbol M); format: in vivo, velvetleaf (Abutilon theophrasti); conditions: AAH 320 g/ha
# Method in brief: as §1
# redroot pigweed = assay: Test Example 4: herbicidal effect by soil treatment (Table 19, symbol N); format: in vivo, redroot pigweed (Amaranthus retroflexus); conditions: AAH 320 g/ha
# Method in brief: as §1
# false cleavers [15] = assay: Test Example 5: herbicidal effect by foliage application, plastic box (Table 20, symbol Q); format: in vivo, false cleavers (Galium spurium); conditions: foliage application, 320 g/ha, 3 weeks after application
# Method in brief: as §2
# Chinese sprangletop = assay: Test Example 3: herbicidal effect by foliage application, Wagner pot (Table 18, symbol D); format: in vivo, chinese sprangletop (Leptochloa chinensis); conditions: 320 g/ha
# Method in brief: as §3
# wild oat [16] = assay: Test Example 4: herbicidal effect by soil treatment (Table 19, symbol I); format: in vivo, wild oat (Avena fatua); conditions: AAH 320 g/ha
# Method in brief: as §1
# persian speedwell [17] = assay: Test Example 4: herbicidal effect by soil treatment (Table 19, symbol R); format: in vivo, Persian speedwell (Veronica persica); conditions: AAH 320 g/ha
# Method in brief: as §1
# windgrass [18] = assay: Test Example 5: herbicidal effect by foliage application, plastic box (Table 20, symbol L); format: in vivo, windgrass (Apera spica-venti); conditions: foliage application, 320 g/ha, 3 weeks after application
# Method in brief: as §2
# persian speedwell [19] = assay: Test Example 5: herbicidal effect by foliage application, plastic box (Table 20, symbol R); format: in vivo, Persian speedwell (Veronica persica); conditions: foliage application, 320 g/ha, 3 weeks after application
# Method in brief: as §2
# velvetleaf [20] = assay: Test Example 5: herbicidal effect by foliage application, plastic box (Table 20, symbol M); format: in vivo, velvetleaf (Abutilon theophrasti); conditions: foliage application, 320 g/ha, 3 weeks after application
# Method in brief: as §2
# chickweed = assay: Test Example 4: herbicidal effect by soil treatment (Table 19, symbol P); format: in vivo, common chickweed (Stellaria media); conditions: AAH 320 g/ha
# Method in brief: as §1
# false cleavers [21] = assay: Test Example 4: herbicidal effect by soil treatment (Table 19, symbol Q); format: in vivo, false cleavers (Galium spurium); conditions: AAH 320 g/ha
# Method in brief: as §1
smiles,measurement,setting,value
CCCC(=O)Oc1c(OC)nn(C)c(=O)c1-c1c(-c2ccc3c(c2)OCCO3)sc2ccccc12 [1-199],"J: blackgrass, herbicidal effect rating",blackgrass [1],0 (Herbicidal rate of 5% or less (almost no effect))
same,"F: southern crabgrass, herbicidal effect rating",southern crabgrass [2],1 (Herbicidal rate of 5% or more and less than 20%)
same,"H: barnyard grass, herbicidal effect rating",barnyard grass [3],2 (Herbicidal rate of 20% or more and less than 40%)
same,effect on barnyard grass (H),barnyard grass [4],0 (Herbicidal rate of 5% or less (almost no effect))
same,effect on lambsquarters (O),lambsquarters [5],0 (Herbicidal rate of 5% or less (almost no effect))
same,effect on southern crabgrass (F),southern crabgrass [6],0 (Herbicidal rate of 5% or less (almost no effect))
same,"L: windgrass, herbicidal effect rating",windgrass [7],0 (Herbicidal rate of 5% or less (almost no effect))
same,effect on green foxtail (G),green foxtail,0 (Herbicidal rate of 5% or less (almost no effect))
same,effect on blackgrass (J),blackgrass [8],0 (Herbicidal rate of 5% or less (almost no effect))
same,"K: Italian ryegrass, herbicidal effect rating",Italian ryegrass [9],0 (Herbicidal rate of 5% or less (almost no effect))
same,"herbicidal effect on H (barnyard grass), rating 0-5",barnyard grass [10],0 (Herbicidal rate of 5% or less (almost no effect))
same,"O: lambsquarters, herbicidal effect rating",lambsquarters [11],3 (Herbicidal rate of 40% or more and less than 70%)
same,effect on Italian ryegrass (K),Italian ryegrass [12],0 (Herbicidal rate of 5% or less (almost no effect))
same,effect on wild oat (I),wild oat [13],0 (Herbicidal rate of 5% or less (almost no effect))
same,"herbicidal effect on E (rice flat sedge), rating 0-5",rice flat sedge,5 (Herbicidal rate of 90% or more (almost completely withered))
same,"M: velvetleaf, herbicidal effect rating",velvetleaf [14],0 (Herbicidal rate of 5% or less (almost no effect))
same,"N: redroot pigweed, herbicidal effect rating",redroot pigweed,0 (Herbicidal rate of 5% or less (almost no effect))
same,effect on false cleavers (Q),false cleavers [15],0 (Herbicidal rate of 5% or less (almost no effect))
same,"herbicidal effect on D (Chinese sprangletop), rating 0-5",Chinese sprangletop,0 (Herbicidal rate of 5% or less (almost no effect))
same,"I: wild oat, herbicidal effect rating",wild oat [16],0 (Herbicidal rate of 5% or less (almost no effect))
same,"R: persian speedwell, herbicidal effect rating",persian speedwell [17],5 (Herbicidal rate of 90% or more (almost completely withered))
same,effect on windgrass (L),windgrass [18],0 (Herbicidal rate of 5% or less (almost no effect))
same,effect on persian speedwell (R),persian speedwell [19],4 (Herbicidal rate of 70% or more and less than 90%)
same,effect on velvetleaf (M),velvetleaf [20],0 (Herbicidal rate of 5% or less (almost no effect))
same,"P: chickweed, herbicidal effect rating",chickweed,4 (Herbicidal rate of 70% or more and less than 90%)
same,"Q: false cleavers, herbicidal effect rating",false cleavers [21],0 (Herbicidal rate of 5% or less (almost no effect))
